Experimental data as given in ChEMBL document CHEMBL5465560, “Selectivity Literature for EUbOPEN Chemogenomic Library” (2024).
Each block holds one compound with its values, some of them ahead of it.

Columns and labels:
[1] = molecular target: T1, Beta-adrenergic receptor kinase 1 (Homo sapiens) (UniProt P25098); test: Selectivity interaction (Kinase panel (Z-LYTE Assay)) EUB0001632a ADRBK1; details: at 10 µM
T1 sequence (whole entry): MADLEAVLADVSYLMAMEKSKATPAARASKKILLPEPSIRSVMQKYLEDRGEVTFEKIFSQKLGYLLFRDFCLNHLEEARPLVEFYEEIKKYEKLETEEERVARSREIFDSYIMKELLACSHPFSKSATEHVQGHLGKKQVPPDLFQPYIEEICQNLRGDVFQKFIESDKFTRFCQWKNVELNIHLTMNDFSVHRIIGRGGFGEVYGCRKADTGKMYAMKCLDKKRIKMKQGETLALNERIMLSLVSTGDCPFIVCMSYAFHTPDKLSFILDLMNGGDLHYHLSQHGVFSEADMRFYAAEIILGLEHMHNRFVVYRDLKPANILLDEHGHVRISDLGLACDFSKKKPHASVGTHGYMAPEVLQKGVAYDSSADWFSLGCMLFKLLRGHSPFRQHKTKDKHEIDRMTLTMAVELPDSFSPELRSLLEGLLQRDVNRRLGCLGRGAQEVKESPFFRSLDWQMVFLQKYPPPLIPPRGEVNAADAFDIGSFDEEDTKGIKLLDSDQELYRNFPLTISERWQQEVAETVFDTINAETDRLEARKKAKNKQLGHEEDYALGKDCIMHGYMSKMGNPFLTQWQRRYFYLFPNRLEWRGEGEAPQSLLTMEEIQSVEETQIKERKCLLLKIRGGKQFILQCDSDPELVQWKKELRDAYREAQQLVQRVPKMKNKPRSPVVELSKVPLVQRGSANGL

[2] = molecular target: Serine/threonine-protein kinase N1 (Homo sapiens, UniProt Q16512); test: Selectivity interaction (Kinase panel (33PanQinase(R) Activity Assay)) EUB0000877a PKN1
[3] = molecular target: Serine/threonine-protein kinase 32A (Homo sapiens) (UniProt Q8WU08); test: Selectivity interaction (KinomeScan (DiscoverX)) EUB0000607a STK32A; details: at 10 µM
[4] = molecular target: Serine/threonine-protein kinase PLK1 (Homo sapiens, UniProt P53350); test: Selectivity interaction (KinomeScan (DiscoverX)) EUB0000607a PLK1; details: at 10 µM
Serine/threonine-protein kinase PLK1, sequence (P53350 whole entry): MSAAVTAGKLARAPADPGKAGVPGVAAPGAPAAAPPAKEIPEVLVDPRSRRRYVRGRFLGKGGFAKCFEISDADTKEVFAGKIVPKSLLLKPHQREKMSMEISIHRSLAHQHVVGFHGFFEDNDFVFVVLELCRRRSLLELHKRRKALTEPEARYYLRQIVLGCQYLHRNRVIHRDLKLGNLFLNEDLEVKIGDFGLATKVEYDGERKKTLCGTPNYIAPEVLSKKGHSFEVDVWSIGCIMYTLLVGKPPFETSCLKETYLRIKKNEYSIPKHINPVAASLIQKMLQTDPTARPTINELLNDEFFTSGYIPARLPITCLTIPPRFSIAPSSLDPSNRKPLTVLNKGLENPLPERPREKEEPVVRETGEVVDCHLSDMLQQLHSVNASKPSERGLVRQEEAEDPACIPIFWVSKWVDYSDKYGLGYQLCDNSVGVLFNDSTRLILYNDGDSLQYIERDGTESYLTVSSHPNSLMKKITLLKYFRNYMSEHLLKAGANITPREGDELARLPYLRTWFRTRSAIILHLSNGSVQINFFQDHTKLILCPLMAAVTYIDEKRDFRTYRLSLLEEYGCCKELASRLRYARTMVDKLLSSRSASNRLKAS

[5] = molecular target: Calcium/calmodulin-dependent protein kinase kinase 1 (Homo sapiens) (UniProt Q8N5S9); test: Selectivity interaction (Kinase panel (Invitrogen)) EUB0000639a CAMKK1; details: at 200 nM
[6] = molecular target: DNA (cytosine-5)-methyltransferase 3A (Homo sapiens) (UniProt Q9Y6K1); test: Selectivity interaction (Methyltransferase screen (Scintillation proximity assays)) EUB0000255b DNMT3A
DNA (cytosine-5)-methyltransferase 3A (Homo sapiens), sequence (Q9Y6K1 whole entry, looked up): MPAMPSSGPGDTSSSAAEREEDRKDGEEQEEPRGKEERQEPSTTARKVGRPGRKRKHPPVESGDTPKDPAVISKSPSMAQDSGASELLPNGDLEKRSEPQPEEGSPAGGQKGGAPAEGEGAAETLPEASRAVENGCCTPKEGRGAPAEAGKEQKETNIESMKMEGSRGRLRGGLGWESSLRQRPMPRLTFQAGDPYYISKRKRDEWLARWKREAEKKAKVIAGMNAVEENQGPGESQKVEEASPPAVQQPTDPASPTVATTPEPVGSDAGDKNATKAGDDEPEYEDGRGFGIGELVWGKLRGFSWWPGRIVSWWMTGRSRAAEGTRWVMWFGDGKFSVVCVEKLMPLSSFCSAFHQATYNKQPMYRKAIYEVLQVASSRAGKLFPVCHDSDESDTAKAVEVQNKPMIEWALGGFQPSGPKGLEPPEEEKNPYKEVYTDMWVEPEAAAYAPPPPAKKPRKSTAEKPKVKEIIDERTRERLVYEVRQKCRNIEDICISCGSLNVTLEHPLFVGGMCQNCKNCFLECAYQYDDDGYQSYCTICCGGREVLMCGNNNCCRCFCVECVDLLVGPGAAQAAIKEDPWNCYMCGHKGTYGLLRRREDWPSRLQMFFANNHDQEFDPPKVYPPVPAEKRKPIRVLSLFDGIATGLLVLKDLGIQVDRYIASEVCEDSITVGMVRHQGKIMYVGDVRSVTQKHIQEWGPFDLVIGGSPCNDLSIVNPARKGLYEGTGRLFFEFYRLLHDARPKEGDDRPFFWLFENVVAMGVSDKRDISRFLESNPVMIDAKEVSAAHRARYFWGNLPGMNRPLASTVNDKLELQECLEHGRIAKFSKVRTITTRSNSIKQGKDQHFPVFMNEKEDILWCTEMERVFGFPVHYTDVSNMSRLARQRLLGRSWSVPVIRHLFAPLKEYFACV

[7] = molecular target: Calcium/calmodulin-dependent protein kinase kinase 2 (Homo sapiens) (UniProt Q96RR4); test: Selectivity interaction (ProQinase) EUB0000171b CAMKK2
Calcium/calmodulin-dependent protein kinase kinase 2 (Homo sapiens), sequence (Q96RR4 2-588 limits assumed): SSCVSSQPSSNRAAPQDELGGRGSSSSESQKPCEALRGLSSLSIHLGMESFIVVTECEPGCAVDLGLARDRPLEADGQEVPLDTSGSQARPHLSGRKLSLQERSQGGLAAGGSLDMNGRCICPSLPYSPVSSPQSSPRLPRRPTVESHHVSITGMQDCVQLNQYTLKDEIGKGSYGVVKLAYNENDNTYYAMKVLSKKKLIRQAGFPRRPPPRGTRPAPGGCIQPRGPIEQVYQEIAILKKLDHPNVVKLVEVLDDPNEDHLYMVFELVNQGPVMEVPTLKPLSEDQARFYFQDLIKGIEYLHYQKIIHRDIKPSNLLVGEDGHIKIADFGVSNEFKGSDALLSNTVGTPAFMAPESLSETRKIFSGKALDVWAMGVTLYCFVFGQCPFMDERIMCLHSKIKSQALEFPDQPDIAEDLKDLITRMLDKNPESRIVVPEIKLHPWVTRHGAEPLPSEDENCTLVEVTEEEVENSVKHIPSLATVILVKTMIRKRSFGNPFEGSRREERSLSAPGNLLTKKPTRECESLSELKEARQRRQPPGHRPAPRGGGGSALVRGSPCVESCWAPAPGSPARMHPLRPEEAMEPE

[8] = molecular target: T2, Dual specificity mitogen-activated protein kinase kinase 4 (Homo sapiens) (UniProt P45985); test: Selectivity interaction (KinomeScan (DiscoverX)) EUB0000595a MAP2K4; details: at 10 µM
T2 sequence (whole entry): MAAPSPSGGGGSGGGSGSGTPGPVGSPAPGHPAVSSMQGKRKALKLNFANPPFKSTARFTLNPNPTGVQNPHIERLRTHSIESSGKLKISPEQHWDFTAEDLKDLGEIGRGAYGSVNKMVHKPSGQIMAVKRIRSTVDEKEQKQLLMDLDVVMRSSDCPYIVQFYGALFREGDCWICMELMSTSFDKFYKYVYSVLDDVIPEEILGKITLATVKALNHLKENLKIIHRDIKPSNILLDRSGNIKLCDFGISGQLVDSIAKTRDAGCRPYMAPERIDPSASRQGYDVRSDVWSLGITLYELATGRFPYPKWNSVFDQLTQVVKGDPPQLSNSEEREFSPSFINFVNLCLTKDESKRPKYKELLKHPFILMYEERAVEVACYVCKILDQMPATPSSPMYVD

[9] = molecular target: Serine/threonine-protein kinase MRCK beta (Homo sapiens) (UniProt Q9Y5S2); test: Selectivity interaction (KinomeScan (DiscoverX)) EUB0001049a CDC42BPB; details: at 1 µM
[10] = molecular target: cAMP-dependent protein kinase catalytic subunit alpha (Homo sapiens, UniProt P17612); test: Selectivity interaction (Millipore kinase profiler) EUB0000124b PRKACA; details: at 10 µM
[11] = molecular target: Myosin-IIIa (Homo sapiens) (UniProt Q8NEV4); test: Selectivity interaction (KinomeScan (DiscoverX)) EUB0000655a MYO3A; details: at 10 µM
Myosin-IIIa (Homo sapiens), sequence (Q8NEV4 whole entry): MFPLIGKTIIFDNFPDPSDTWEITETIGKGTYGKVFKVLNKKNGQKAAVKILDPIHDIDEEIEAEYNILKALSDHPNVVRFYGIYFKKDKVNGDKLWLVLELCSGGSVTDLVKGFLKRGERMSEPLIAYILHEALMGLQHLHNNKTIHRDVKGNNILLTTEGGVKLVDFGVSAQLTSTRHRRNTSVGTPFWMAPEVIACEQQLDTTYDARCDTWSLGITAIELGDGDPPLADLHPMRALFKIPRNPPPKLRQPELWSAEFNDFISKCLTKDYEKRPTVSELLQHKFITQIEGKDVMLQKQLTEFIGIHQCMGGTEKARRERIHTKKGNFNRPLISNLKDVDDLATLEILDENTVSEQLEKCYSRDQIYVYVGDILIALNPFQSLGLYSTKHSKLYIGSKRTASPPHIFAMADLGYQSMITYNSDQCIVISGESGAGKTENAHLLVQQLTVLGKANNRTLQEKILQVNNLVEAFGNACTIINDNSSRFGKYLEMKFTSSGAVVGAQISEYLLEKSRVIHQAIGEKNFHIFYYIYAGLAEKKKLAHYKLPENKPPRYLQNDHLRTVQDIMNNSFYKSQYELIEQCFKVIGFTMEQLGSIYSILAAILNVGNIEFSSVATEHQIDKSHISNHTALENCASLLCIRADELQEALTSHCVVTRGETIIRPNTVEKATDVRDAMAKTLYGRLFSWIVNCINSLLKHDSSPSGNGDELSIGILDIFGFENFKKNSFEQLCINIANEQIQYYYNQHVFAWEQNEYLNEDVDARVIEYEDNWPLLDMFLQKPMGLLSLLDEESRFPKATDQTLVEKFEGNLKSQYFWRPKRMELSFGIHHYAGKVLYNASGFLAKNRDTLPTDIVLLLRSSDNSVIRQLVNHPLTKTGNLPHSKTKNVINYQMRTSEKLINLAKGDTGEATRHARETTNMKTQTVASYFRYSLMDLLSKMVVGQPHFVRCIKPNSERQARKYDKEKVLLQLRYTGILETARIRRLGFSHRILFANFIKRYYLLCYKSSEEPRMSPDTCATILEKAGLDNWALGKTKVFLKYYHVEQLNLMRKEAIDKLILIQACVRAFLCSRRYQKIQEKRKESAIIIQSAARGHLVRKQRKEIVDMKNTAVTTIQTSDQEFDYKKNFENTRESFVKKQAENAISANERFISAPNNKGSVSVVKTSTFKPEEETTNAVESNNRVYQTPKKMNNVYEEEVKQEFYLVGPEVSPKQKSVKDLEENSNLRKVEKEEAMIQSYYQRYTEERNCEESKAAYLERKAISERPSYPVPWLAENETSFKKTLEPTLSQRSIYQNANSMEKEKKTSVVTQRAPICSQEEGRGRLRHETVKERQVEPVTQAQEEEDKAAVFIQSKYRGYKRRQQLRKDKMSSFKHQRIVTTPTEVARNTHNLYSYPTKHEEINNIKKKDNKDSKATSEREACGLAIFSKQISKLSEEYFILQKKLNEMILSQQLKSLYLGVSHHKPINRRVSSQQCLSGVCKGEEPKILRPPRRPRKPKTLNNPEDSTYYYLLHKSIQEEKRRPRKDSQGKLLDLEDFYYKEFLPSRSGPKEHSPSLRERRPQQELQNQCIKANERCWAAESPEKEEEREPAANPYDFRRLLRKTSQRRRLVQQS

[12] = molecular target: Wee1-like protein kinase 2 (Homo sapiens) (UniProt P0C1S8); test: Selectivity interaction (KinomeScan (DiscoverX)) EUB0001079a WEE2; details: at 1 µM
Wee1-like protein kinase 2 (Homo sapiens), sequence (P0C1S8 whole entry, looked up): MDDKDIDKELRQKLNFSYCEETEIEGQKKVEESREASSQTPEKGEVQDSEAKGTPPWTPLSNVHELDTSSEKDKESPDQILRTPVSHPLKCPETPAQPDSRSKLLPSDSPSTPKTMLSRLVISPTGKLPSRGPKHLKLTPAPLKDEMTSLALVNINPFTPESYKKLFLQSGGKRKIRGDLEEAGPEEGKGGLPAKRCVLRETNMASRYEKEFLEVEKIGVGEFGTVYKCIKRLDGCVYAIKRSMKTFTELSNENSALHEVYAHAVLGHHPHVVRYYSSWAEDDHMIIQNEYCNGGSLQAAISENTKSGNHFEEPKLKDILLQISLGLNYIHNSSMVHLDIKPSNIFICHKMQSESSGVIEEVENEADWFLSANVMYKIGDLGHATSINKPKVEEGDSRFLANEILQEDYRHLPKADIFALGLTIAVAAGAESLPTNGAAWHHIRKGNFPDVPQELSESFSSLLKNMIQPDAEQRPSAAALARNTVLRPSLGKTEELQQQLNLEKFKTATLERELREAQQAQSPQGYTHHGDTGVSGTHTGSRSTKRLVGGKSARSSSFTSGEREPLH

[13] = molecular target: T3, Mitogen-activated protein kinase 13 (Homo sapiens) (UniProt O15264); test: Selectivity interaction (KinomeScan (DiscoverX)) EUB0001079a MAPK13; details: at 1 µM
T3 sequence (whole entry): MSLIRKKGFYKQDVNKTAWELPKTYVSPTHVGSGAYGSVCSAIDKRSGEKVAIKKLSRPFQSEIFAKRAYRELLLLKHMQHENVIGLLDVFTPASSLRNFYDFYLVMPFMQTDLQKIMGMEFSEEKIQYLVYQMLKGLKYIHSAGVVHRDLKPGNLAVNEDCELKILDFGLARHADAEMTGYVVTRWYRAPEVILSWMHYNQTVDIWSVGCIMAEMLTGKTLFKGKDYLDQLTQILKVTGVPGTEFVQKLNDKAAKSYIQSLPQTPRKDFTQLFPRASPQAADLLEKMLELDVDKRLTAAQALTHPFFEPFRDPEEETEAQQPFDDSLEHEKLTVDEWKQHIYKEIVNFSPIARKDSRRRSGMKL

[14] = molecular target: DNA (cytosine-5)-methyltransferase 3B (Homo sapiens) (UniProt Q9UBC3); details: at 1 µM
[15] = molecular target: Dual specificity protein kinase CLK2 (Homo sapiens, UniProt P49760); test: Selectivity interaction (KinomeScan (DiscoverX)) EUB0000229b CLK2; details: at 10 µM
Dual specificity protein kinase CLK2, sequence (P49760 whole entry, looked up): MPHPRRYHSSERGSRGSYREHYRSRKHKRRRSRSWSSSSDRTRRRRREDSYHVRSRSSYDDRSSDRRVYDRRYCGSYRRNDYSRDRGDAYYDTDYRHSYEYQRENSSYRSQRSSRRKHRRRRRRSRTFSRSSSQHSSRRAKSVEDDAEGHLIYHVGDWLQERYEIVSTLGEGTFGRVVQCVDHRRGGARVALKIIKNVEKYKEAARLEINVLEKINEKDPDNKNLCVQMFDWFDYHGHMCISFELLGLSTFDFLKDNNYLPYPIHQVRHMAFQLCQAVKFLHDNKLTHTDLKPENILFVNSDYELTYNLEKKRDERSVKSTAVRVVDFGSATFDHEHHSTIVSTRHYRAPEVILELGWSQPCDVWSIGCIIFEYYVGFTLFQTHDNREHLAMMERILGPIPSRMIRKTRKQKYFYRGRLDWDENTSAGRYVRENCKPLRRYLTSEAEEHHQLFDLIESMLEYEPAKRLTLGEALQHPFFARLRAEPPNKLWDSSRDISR

[16] = molecular target: Myosin-IIIa (Homo sapiens) (UniProt Q8NEV4); test: Selectivity interaction (KinomeScan (DiscoverX)) EUB0001619a MYO3A; details: at 1 µM

% of control [1]: -5.86%
SMILES: Cn1cc(-n2cnc3c(NCc4nc5cc(Cl)c(Cl)cc5[nH]4)nc(N4CCOCC4)nc32)cn1

IC50 [2]: > 10 µM
SMILES: CCC(=O)N1CC[C@H](Nc2ncnc3c2CN(c2cnc(OC)c(C(F)(F)F)c2)CC3)C1 [LENIOLISIB]

SMILES: CNC(=O)Nc1ccc(-c2nc(N3CC4CCC(C3)O4)c3cnn(C4CCC5(CC4)OCCO5)c3n2)cc1
% of control [3]: 99%
% of control [4]: 77%

% of inhibition [5]: 2.23%
SMILES: CC[C@@H]1[C@H](F)C(=O)N[C@@H]1COc1nccc2cc(C(N)=O)c(OC)cc12 [ZIMLOVISERTIB]

SMILES: COCCN1CCC(c2cc(CN(C)C(=O)c3cccc(Oc4ccccc4)c3)ccn2)CC1
% activity ([6]; at 1 µM): > 95%
% activity ([6]; at 10 µM): > 85%

% of control ([7]; at 1 µM): 83%
% of control ([7]; at 5 µM): 86%
SMILES: C=CC(=O)Nc1cccc(C(=O)Nc2ccc(Nc3cc(-c4[nH]c(SC)nc4C)ccn3)cc2)c1

SMILES: COCC(=O)NC/C=C/c1ccc2ncnc(Nc3ccc(Oc4ccc(C)nc4)c(C)c3)c2c1 [CP-724714]
% of control [8]: 95%

SMILES: COc1cc(Nc2nc(C)cc(-c3cnn4nc(OC)ccc34)n2)cc(C(F)(F)F)c1
% of control [9]: 85%

% of control [10]: 98%
SMILES: CC(=O)Nc1cccc(-n2c(=O)n(C3CC3)c(=O)c3c(Nc4ccc(I)cc4F)n(C)c(=O)c(C)c32)c1

SMILES: CN(C)CCOc1ccc(-c2nc(-c3ccncc3)c(-c3ccc4c(c3)CC/C4=N\O)[nH]2)cc1
% of control [11]: 94%

SMILES: Nc1cnc(N2CCc3cc(S(=O)(=O)Nc4c(F)cc(Cl)cc4F)cc(N4CCCC4=O)c32)nc1 [TP-020n]
% of control [12]: 93%
% of control [13]: 100%

% activity [14]: > 85%
SMILES: CNCCN1CCC(c2cc(CN(C)C(=O)c3cccc(Oc4ccccc4)c3)ccn2)CC1

SMILES: COc1cc(N(C)c2ccnc3ccc(C(F)(F)F)cc23)cc(OC)c1OC
% binding [15]: 85%

SMILES: N#Cc1cccc(-c2c[nH]c3ncnc(N4CCOCC4)c23)c1
% of control [16]: 94%
